Where a name gives a salt, the structure may show the parent alone. Read-outs that look alike come from different tables or passages of the source.
Legend:
[1] = test system: Purkinje fiber of the right ventricular free wall (myocardial action potential); assay: Influence on myocardial action potential duration time (APD75), isolated right ventricular free wall, microelectrode in Purkinje fiber; type: cell-based, dog; conditions: Canis lupus familiaris, 20 min
[2] = test system: ventricular muscle refractory period; assay: Influence on ventricular muscle refractory period (ERP); type: in vivo, mongrel dog; conditions: Canis lupus familiaris, iv, i.v., (W-Y)/Y×100, read-out: ERP (%; extensibility of refractory period)
Experimental: (2) Influence on ventricular muscle refractory period Refractory periods were measured in the following manner before and after each of the compounds and d-sotalol shown in Table 2 was separately administered to a vein or a duodenum, and ERP (%; extensibility of refractory period) was calculated from the measured values: ERP (%)=(W-Y)/Y×100 W: Refractory period after administration Y: Refractory period before administration To a mongrel adult dog, 30 mg/kg of pentobarbital was administered intravenously, and after being anesthetized, a pair of silver-silver chloride electrodes separated by 3 mm was sewn on an opened right ventricule, and electrical stimulation was given at an interval of 400 msec at a duration time of 4 msec under a current twice as much as the threshold. Afterward, a small amount of alcohol was injected into a sinus artery in order to extinguish a pacemaker activity, and the ventricular refractory period (ERP) was measured under ventricule pacing. That is, each 1 train comprised 10 stimulations having intervals of 400 msec, and an interval between the trains was usually 400 msec. However, this interval was shortened 10 msec by 10 msec at the time of the refractory period measurement, and an interval between the trains at the time when reaction to the first stimulation of the train disappeared was regarded as the refractory period. In this case, the electrical stimulation was fed in accordance with a program by a heart stimulation device (Diamedical Co., Ltd.; DHM-226-3).

[3] = 1.0 μg/ml, 20 minutes' incubation, (B-A)/A×100, read-out: APD75 (%)
[4] = 3.0 μg/ml, 20 minutes' incubation, (B-A)/A×100, read-out: APD75 (%)
[5] = 10.0 μg/ml, 20 minutes' incubation, (B-A)/A×100, read-out: APD75 (%)

| SMILES | activation at 1 µg/mL [1, 3] [%] | activation at 3 µg/mL [1, 4] [%] | activation at 10 µg/mL [1, 5] [%] | change in vivo at 0.1 mg/kg [2] [%] | change in vivo at 0.3 mg/kg [2] [%] | change in vivo at 1 mg/kg [2] [%] | change in vivo at 3 mg/kg [2] [%] | activation at 1 µg/mL ([1]; read-out: APD75 (%)) [%] | activation at 3 µg/mL ([1]; read-out: APD75 (%)) [%] | activation at 10 µg/mL ([1]; read-out: APD75 (%)) [%] |
| --- | --- | --- | --- | --- | --- | --- | --- | --- | --- | --- |
| Cn1c(N2CCN(CCCNc3ccc([N+](=O)[O-])cc3)CC2)cc(=O)n(C)c1=O [Compound 58] | 10 | 18 | 28 | – | – | – | – | – | – | – |
| Cn1c(N2CCN(CCCOc3ccc([N+](=O)[O-])cc3)CC2)cc(=O)n(C)c1=O [Compound 35, 1,3-dimethyl-6-{4-[3-(4-nitrophenoxy)propyl]piperazin-1-yl}-2,4(1H,3H)-pyrimidinedione hydrochloride] | 17 | 22 | 30 | 6 | 12 | 15.8 | 25.3 | – | – | – |
| COc1cc([N+](=O)[O-])ccc1OCCCN1CCN(c2cc(=O)n(C)c(=O)n2C)CC1 [Compound 164, 1,3-dimethyl-6-{4-[3-(2-methoxy-4-nitrophenyloxy)propyl]piperazin-1-yl}-2,4(1H,3H)-pyrimidinedione hydrochloride] | – | 8 | 12 | 0 | 7.7 | 15.4 | 15.4 | – | – | – |
| Cn1c(N2CCN(CCCNc3ccc([N+](=O)[O-])cc3C(=O)c3ccccc3)CC2)cc(=O)n(C)c1=O [Compound 111, 1,3-dimethyl-6-{4-[3-(2-benzoyl-4-nitroanilino)propyl]piperazin-1-yl}-2,4(1H,3H)-pyrimidinedione oxalate] | 13 | 21 | – | 7.7 | 10.9 | 14 | 21 | – | – | – |
| CC(=O)c1cc([N+](=O)[O-])ccc1NCCCN1CCN(c2cc(=O)n(C)c(=O)n2C)CC1 [Compound 120, 1,3-dimethyl-6-{4-[3-(2-acetyl-4-nitroanilino)propyl]piperazin-1-yl}-2,4(1H,3H)-pyrimidinedione oxalate] | 16 | 27 | 29 | – | – | – | – | – | – | – |
| Cn1c(N2CCN(CC(=O)c3ccc([N+](=O)[O-])cc3)CC2)cc(=O)n(C)c1=O [Compound 42, 1,3-dimethyl-6-[4-(4-nitrophenacyl)piperazin-1-yl]-2,4(1H,3H)-pyrimidinedione hydrochloride] | 2 | 10 | 17 | 4.6 | 9.4 | 11.7 | 18.4 | – | – | – |
| Cn1c(NCCNCCc2ccc([N+](=O)[O-])cc2)cc(=O)n(C)c1=O [Compound 16, 1,3-dimethyl-6-{2-[2-(4-nitrophenyl)ethylamino]ethylamino}-2,4(1H,3H)-pyrimidinedione oxalate] | – | 22 | – | 6.7 | 13.3 | 13.3 | – | – | – | – |
| Cn1c(N2CCN(CCCc3ccc([N+](=O)[O-])cc3)CC2)cc(=O)n(C)c1=O [Compound 33, 1,3-dimethyl-6-{4-[3-(4-nitrophenyl)propyl]piperazin-1-yl)-2,4(1H,3H)-pyrimidinedione oxalate] | 17 | 22 | 31 | 14.3 | 14.3 | 17.9 | 21.4 | – | – | – |
| Cn1c(N2CCN(CCOc3ccc([N+](=O)[O-])cc3C(=O)c3ccccc3)CC2)cc(=O)n(C)c1=O [Compound 99] | 9 | 22 | 29 | 9.8 | 14.7 | 23.1 | – | – | – | – |
| COC(=O)c1ccc(OCCCN2CCN(c3cc(=O)n(C)c(=O)n3C)CC2)c([N+](=O)[O-])c1 [Compound 154, 1,3-dimethyl-6-{4-[3-(4-methoxycarbonyl-2-nitrophenyloxy)propyl]piperazin-1-yl}-2,4(1H,3H)-pyrimidinedione oxalate] | 9 | 12 | 20 | 0 | 0 | 5.9 | 11.8 | – | – | – |
| Cn1c(N2CCN(CCc3ccc(C(=O)c4ccccc4)cc3[N+](=O)[O-])CC2)cc(=O)n(C)c1=O [Compound 137, 1,3-dimethyl-6-{4-[2-(4-benzoyl-2-nitrophenyl)ethyl]piperazin-1-yl}-2,4(1H,3H)-pyrimidinedione oxalate] | 32 | 51 | – | 6.3 | 6.3 | 12.5 | 18.8 | – | – | – |
| CCN(CCNc1cc(=O)n(C)c(=O)n1C)CCc1ccc([N+](=O)[O-])cc1 [Compound 21] | 13 | 27 | 37 | 7 | 10 | 14 | 14 | – | – | – |
| CN(CCCN1CCN(c2cc(=O)n(C)c(=O)n2C)CC1)c1ccc([N+](=O)[O-])cc1 [Compound 69, 1,3-dimethyl-6-{4-[3-(N-methyl-4-nitroanilino)propyl]piperazin-1-yl}-2,4(1H,3H)-pyrimidinedione oxalate] | – | 11 | 13 | 6.7 | 6.7 | 13.3 | 20 | – | – | – |
| Cn1c(NCCNC2CCN(c3ccc([N+](=O)[O-])cc3)CC2)cc(=O)n(C)c1=O [Compound 61, 1,3-dimethyl-6-{2-[[1-(4-nitrophenyl)piperidin-4-yl]amino]ethylamino}-2,4(1H,3H)-pyrimidinedione oxalate] | – | – | – | 8.3 | 8.3 | 8.3 | – | – | – | – |
| Cn1c(N2CCN(c3ccc([N+](=O)[O-])cc3)CC2)cc(=O)n(C)c1=O [Compound 1, 1,3-dimethyl-6-[4-(4-nitrophenyl)piperazin-1-yl]-2,4(1H,3H)-pyrimidinedione] | – | – | – | 3.6 | 3.6 | 10.3 | – | – | – | – |
| COCCN(CCCc1ccc([N+](=O)[O-])cc1)CCNc1cc(=O)n(C)c(=O)n1C [Compound 171, 1,3-dimethyl-6-{2-[N-(2-methoxyethyl)-3-(4-nitrophenyl)propylamino]ethylamino}-2,4(1H,3H)-pyrimidinedione oxalate] | 19 | 23 | 38 | – | – | – | – | – | – | – |
| Cn1c(N2CCN(CC(=O)Nc3ccc([N+](=O)[O-])cc3)CC2)cc(=O)n(C)c1=O [Compound 47, 1,3-dimethyl-6-{4-[N-(4-nitrophenyl)carbamoylmethyl]piperazin-1-yl}-2,4(1H,3H)pyrimidinedione oxalate] | 5 | 11 | 16 | – | – | – | – | – | – | – |
| Cn1c(NCCN(CCO)CCCc2ccc([N+](=O)[O-])cc2)c([N+](=O)[O-])c(=O)n(C)c1=O [Compound 180, 1,3-dimethyl-6-{2-[N-(2-hydroxethyl)-3-(4-nitrophenyl)propylamino]ethylamino}-5-nitro-2,4(1H,3H)-pyrimidinedione hydrochloride] | – | – | – | – | – | – | – | 11 | 20 | 26 |
| CC(=O)c1ccc(OCCN2CCN(c3cc(=O)n(C)c(=O)n3C)CC2)c([N+](=O)[O-])c1 [Compound 102] | 7 | 20 | – | – | – | – | – | – | – | – |
| CCN(CCCNc1ccc([N+](=O)[O-])cc1)CCNc1cc(=O)n(C)c(=O)n1C [Compound 73, 1,3-dimethyl-6-{2-[N-ethyl-3-(4-nitroanilino)propylamino]ethylamino}-2,4(1H,3H)-pyrimidinedione hydrochloride] | 2 | 12 | 18 | – | – | – | – | – | – | – |
| Cn1c(N2CCN(CCCOc3ccc([N+](=O)[O-])cc3C(=O)c3ccccc3O)CC2)cc(=O)n(C)c1=O [Compound 104, 1,3-dimethyl-6-{4-<3-[2-(2-hydroxybenzoyl)-4-nitrophenoxy]propyl>piperazin-1-yl}-2,4(1H,3H)-pyrimidinedione oxalate] | – | 16 | 25 | – | – | – | – | – | – | – |

— patent US5008267A, “Pyrimidinedione compounds, method of producing the same and antiarrythmic agents containing the same” (Mitsui Toatsu Chemicals, Incorporated, priority 1988, dated 1991)
